Laboratory results taken from patent publication US20060252735A1, “Treatment of graft-versus-host disease and leukemia with beclomethasone dipropionate and prednisone” (DOR BioPharma, Inc., priority 2004, published 2006).

Experiments:
[1] = tested on: gastrointestinal GVHD patients; conditions: cited from earlier work
Grade II GI GVHD = conditions: capsule form, 8 mg/day divided into 4 equal doses; cited from earlier work
[2] = tested on: patients with Grade II GVHD with gastrointestinal symptoms; conditions: oral BDP 8 mg/day for 30 days as adjuvant to prednisone; cited from earlier work
[3] = tested on: patients with Grade II GVHD with GI symptoms; assay: Phase III trial: survival/mortality through 200 days post-transplant; format: in vivo, human
Procedure: 5. To compare the treatment groups with respect to total deaths and cause of death through 200 days post-transplant.
(§1) The randomization was stratified by the source of the allograft (two HLA haplotype identical sibling versus all other), and by topical corticosteroid use (yes versus no). All patients received 10 days of prednisone at 1 mg/kg/day (or an equivalent dose of intravenous [IV] corticosteroid). On Study Day 10, patients determined by the investigator to have their GVHD controlled had their prednisone tapered rapidly over 7 days starting on Study Day 11, and received a maintenance prednisone dose of 0.0625 mg/kg/day for the remainder of the study. BDP doses were evenly divided to include equal quantities of the IR and EC formulations administered four times per day.
7. Patient survival through day 200 post-transplant.
One hundred and twenty-nine (129) post-bone marrow transplant patients presenting with Grade II iGVHD were enrolled in the randomized, double-blind, placebo-controlled, multi-center clinical trial, which was conducted at 16 bone marrow transplant centers in the United States and France. All patients in the Phase III clinical trial were initially treated with a constant daily dose of high dose (1-2 mg/kg) prednisone, which is the current standard therapy, in combination with an oral dose of either orBec® (8 mg/day) or placebo for the first 10 days. On day 10, if patients were responding to treatment, the high dose prednisone was rapidly tapered and patients continued to receive either orBec® or placebo orally for an additional forty days. The primary endpoint of the study was a comparison between the two treatment arms of the time to treatment failure, defined as the need for additional therapies due to uncontrolled signs or symptoms of GVHD. Secondary endpoints in the study included a comparison of the proportion of treatment failures and clinical scores at 10 Days, 30 Days, 50 Days, 60 Days and 80 Days post-randomization, a comparison of cumulative exposure to systemic steroids, as well as a comparison of mortality at Day 200 post-transplant.

[4] = tested on: patients with Grade II GVHD with GI symptoms; assay: Phase III randomized, double-blind, placebo-controlled trial: treatment failure with oral BDP plus 10 days of prednisone; format: in vivo, human; conditions: for Cumulative events (treatment failures): full analysis set, 62 randomized
Excerpt: The Secondary objectives of the study were:
To be eligible for entry into the study, patients were at least 10 days post allogeneic hematopoietic cell transplantation, have GI symptoms consistent with Grade II GVHD, and had endoscopic evidence of GVHD. The diagnosis of GVHD was confirmed by biopsy of the intestine (esophagus, stomach, small intestine, or colon) or skin. A total of 129 eligible patients were randomized to one of two treatment groups.
as §1
1. Treatment failure, defined as use of prednisone or equivalent IV corticosteroids at doses higher than stated in protocol, or addition of other immunosuppressant medications.
The primary efficacy endpoint of this two-arm study was the time to treatment failure. The primary efficacy analysis will compare the time to treatment failure through Study Day 50 using a log-rank test controlling for patient randomization stratum. Product-limit estimates for time to failure will be provided for descriptive purposes. The null hypothesis for the log-rank test is that time to failure is homogeneous across the treatment groups.
Secondary analyses of treatment failure compared the treatment groups with respect to proportion of treatment failures and Karnofsky Scale (or Lansky Scale) scores at key time points. The difference in proportion of treatment failures on Study Days 10, 30, 50, 60, and 80 was evaluated using a two-sided Fisher's Exact test of the null hypothesis of no difference between the treatment groups. The difference in Karnofsky Scale (or Lansky Scale) scores at the same time points was evaluated using a two-sided Wilcoxon test to evaluate the null hypothesis of no difference in medians between treatment groups.
On Study Day 10, patients were evaluated for the signs and symptoms of GVHD. Patients in both treatment groups who met the response criterion of adequately controlled GVHD, as judged by the investigator, had their prednisone tapered over 7 days starting on Study Day 11 (Table 2). Starting on Study Day 17, physiologic replacement doses of prednisone were given for the remainder of the study. If the investigator determined that GVHD was not controlled on Study Day 10, patients discontinued study drug but continued prednisone initially at 1 mg/kg/day; these patients were considered to be treatment failures. In treatment failure cases, physicians subsequently modifiedy prednisone dosage as deemed appropriate.
One hundred and twenty-nine (129) post-bone marrow transplant patients presenting with Grade II iGVHD were enrolled in the randomized, double-blind, placebo-controlled, multi-center clinical trial, which was conducted at 16 bone marrow transplant centers in the United States and France. All patients in the Phase III clinical trial were initially treated with a constant daily dose of high dose (1-2 mg/kg) prednisone, which is the current standard therapy, in combination with an oral dose of either orBec® (8 mg/day) or placebo for the first 10 days. On day 10, if patients were responding to treatment, the high dose prednisone was rapidly tapered and patients continued to receive either orBec® or placebo orally for an additional forty days. […]

[5] = up to 28 days of BDP 8 mg/day, both groups (taking prednisone or not)
[6] = 200 days post-transplant, safety population, 61 evaluable
[7] = orBec n = 62, p 0.006 vs placebo

CCC(=O)OCC(=O)[C@@]1(OC(=O)CC)[C@@H](C)C[C@H]2[C@@H]3CCC4=CC(=O)C=C[C@]4(C)[C@@]3(Cl)[C@@H](O)C[C@@]21C [BDP, Beclomethasone 17,21-dipropionate]
study drug associated adverse events reported ([1]; BDP 8 mg/day for 28 days): mild metallic taste and mild peri-umbilical heaviness
treatment-related adverse events ([1]; BDP 8 mg/day for 28 days): No significant treatment-related adverse events were observed
timing of response versus historical high dose prednisone ([1]; BDP alone group): appeared to be slower
gastrointestinal symptoms versus baseline [1, 5]: abatement of most gastrointestinal symptoms
oral food intake versus baseline [1, 5]: increase in oral food intake
clinical benefit in treatment of Grade II GI GVHD (Grade II GI GVHD): provide clinical benefit
gastrointestinal symptoms (nausea, vomiting, diarrhea) versus placebo group [2]: all improved
proportion of patients with increased oral caloric intake versus prednisone plus placebo [2]: significantly higher proportion
Survival status: Alive, number of subjects [3, 6]: 56
Survival status: Alive, percent of subjects [3, 6]: 92%
Survival status: Dead, number of subjects [3, 6]: 5
Survival status: Dead, percent of subjects [3, 6]: 8%
reduction in mortality versus placebo group ([3]; Day 200 post-transplant period): 70%
Mortality Rate at 200 Days Post-Transplant [3, 7]: 8%
Mortality at 200 Days Post-Transplant, number of deaths [3, 7]: 5
Day 200 survival rate ([3]; safety population, Z = 2.750, P = 0.0060 vs placebo): 0.91
Cumulative treatment failure rate (Kaplan-Meier estimate) ([4]; Study day 10, P = 0.1538 vs placebo): 0.14
Cumulative events (treatment failures) ([4]; Study day 10): 8
Cumulative treatment failure rate (Kaplan-Meier estimate) ([4]; Study day 30, P = 0.3625 vs placebo): 0.25
Cumulative events (treatment failures) ([4]; Study day 30): 15
Cumulative treatment failure rate (Kaplan-Meier estimate) ([4]; Study day 50, P = 0.0515 vs placebo): 0.31
Cumulative events (treatment failures) ([4]; Study day 50): 18
Cumulative treatment failure rate (Kaplan-Meier estimate) ([4]; Study day 60, P = 0.0558 vs placebo): 0.33
Cumulative events (treatment failures) ([4]; Study day 60): 19
Cumulative treatment failure rate (Kaplan-Meier estimate) ([4]; Study day 80, P = 0.0048 vs placebo): 0.39
Cumulative events (treatment failures) ([4]; Study day 80): 22
time to treatment failure through Day 50 (primary endpoint) versus placebo ([4]; log-rank, p-value 0.1177): did not achieve statistical significance
Treatment Failure Rate at Study Day 80 ([4]; orBec 8 mg/day for 50 days + prednisone, n = 62, p 0.0048 vs placebo): 39%
Treatment Failure Rate at Study Day 50 ([4]; orBec 8 mg/day for 50 days + prednisone, n = 62, p 0.0515 vs placebo): 31%
time to treatment failure through Day 80 (secondary endpoint) versus placebo ([4]; p-value 0.0226): did achieve statistical significance
